Assay results: patent US12180187B2, “1-phenyl-5-azinylpyrazolyl-3-oxyalkyl acids and their use for controlling unwanted plant growth” (BAYER AKTIENGESELLSCHAFT, priority 2019, dated 2024)

Key:
ALOMY [1] = assay: Pre-emergence action against ALOMY, 1280 g/ha; type: in vivo, Alopecurus myosuroides; settings: visual scoring after about 3 weeks vs untreated controls, 100% = plants have died, 0% = like control plants
Outline: (§1)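 Sandy loam pots, seeds covered with soil; aqueous WP/EC spray on covering soil, 0.5% additive, 600 L/ha. Greenhouse growth, good conditions. Readout: visual % activity at ~3 weeks (0% = like control, 100% = dead).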

DIGSA [2] = assay: Pre-emergence action against DIGSA, 1280 g/ha; type: in vivo, Digitaria sanguinalis; settings: visual scoring after about 3 weeks vs untreated controls, 100% = plants have died, 0% = like control plants
Outline: as §1

LOLRI = assay: Pre-emergence action against LOLRI, 1280 g/ha; type: in vivo, Lolium rigidum; settings: visual scoring after about 3 weeks vs untreated controls, 100% = plants have died, 0% = like control plants
Outline: as §1

POAAN [3] = assay: Pre-emergence action against POAAN, 1280 g/ha; type: in vivo, Poa annua; settings: visual scoring after about 3 weeks vs untreated controls, 100% = plants have died, 0% = like control plants
Outline: as §1

SETVI = assay: Pre-emergence action against SETVI, 1280 g/ha; type: in vivo, Setaria viridis; settings: visual scoring after about 3 weeks vs untreated controls, 100% = plants have died, 0% = like control plants
Outline: as §1

AMARE = assay: Pre-emergence action against AMARE, 1280 g/ha; type: in vivo, Amaranthus retroflexus; settings: scored visually after about 3 weeks vs untreated controls (100% = plants have died)
Outline: as §1

KCHSC = assay: Pre-emergence action against KCHSC, 1280 g/ha; type: in vivo, Bassia scoparia; settings: scored visually after about 3 weeks vs untreated controls (100% = plants have died)
Description: 1. Pre-Emergence Herbicidal Effect and Crop Plant Compatibility a) Seeds of mono- and dicotyledonous weed plants are placed in plastic pots in sandy loam soil (doubly sown with one species each of mono- or dicotyledonous weed plants per pot) and covered with soil. The compounds of the invention, formulated in the form of wettable powders (WP) or as emulsion concentrates (EC), are then applied onto the surface of the covering soil as aqueous suspension or emulsion with addition of 0.5% additive at a water application rate equivalent to 600 litres per hectare. After the treatment, the pots are placed in a greenhouse and kept under good growth conditions for the trial plants. After about 3 weeks, the effect of the preparations is scored visually in comparison with untreated controls as percentages. For example, 100% activity=the plants have died, 0% activity=like control plants. 1. Pre-Emergence Effectiveness Tables 1 to 12 below show the effects of selected compounds of the general formula (I) according to Tables 1 and 2 on various harmful plants and at an application rate corresponding to 1280 g/ha, which were obtained by the experimental procedure mentioned above.

MATIN [4] = assay: Pre-emergence action against MATIN, 1280 g/ha; type: in vivo, Tripleurospermum inodorum (Matricaria inodora); settings: scored visually after about 3 weeks vs untreated controls (100% = plants have died)
Outline: as §1

STEME = assay: Pre-emergence action against STEME, 1280 g/ha; type: in vivo, Stellaria media; settings: scored visually after about 3 weeks vs untreated controls (100% = plants have died)
Outline: as §1

VERPE [5] = assay: Pre-emergence action against VERPE, 1280 g/ha; type: in vivo, Veronica persica; settings: scored visually after about 3 weeks vs untreated controls (100% = plants have died)
Outline: as §1

VERPE [6] = assay: Post-emergence action against VERPE, 1.28 kg/ha; type: in vivo, Veronica persica; settings: dosage 1280 g/ha, visual rating about 3 weeks after treatment vs untreated controls (100% = plants died)
Outline: (§2)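 Percent activity was scored visually ~3 wk post-spray relative to untreated plants. Treatment was post-emergence at the one-leaf stage using WP/EC in water with 0.5% additive (600 L/ha).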

ECHCG = assay: Pre-emergence action against ECHCG, 1280 g/ha; type: in vivo, Echinochloa crus-galli; settings: visual scoring after about 3 weeks vs untreated controls, 100% = plants have died, 0% = like control plants
Outline: as §1

ALOMY [7] = assay: Post-emergence action against ALOMY, 1.28 kg/ha; type: in vivo, Alopecurus myosuroides; settings: dosage 1280 g/ha, visual rating about 3 weeks after treatment vs untreated controls
Outline: as §2

DIGSA [8] = assay: Post-emergence action against DIGSA, 1.28 kg/ha; type: in vivo, Digitaria sanguinalis; settings: dosage 1280 g/ha, visual rating about 3 weeks after treatment vs untreated controls
Outline: as §2

POAAN [9] = assay: Post-emergence action against POAAN, 1.28 kg/ha; type: in vivo, Poa annua; settings: dosage 1280 g/ha, visual rating about 3 weeks after treatment vs untreated controls
Outline: as §2

ABUTH = assay: Post-emergence action against ABUTH, 1.28 kg/ha; type: in vivo, Abutilon theophrasti; settings: dosage 1280 g/ha, visual rating about 3 weeks after treatment vs untreated controls (100% = plants died)
Outline: as §2

MATIN [10] = assay: Post-emergence action against MATIN, 1.28 kg/ha; type: in vivo, Tripleurospermum inodorum (Matricaria inodora); settings: dosage 1280 g/ha, visual rating about 3 weeks after treatment vs untreated controls (100% = plants died)
Outline: as §2

For C[C@@H](Oc1nn(-c2ccccc2F)c(-c2cnccn2)c1Br)C(=O)O [Example I-002], the “Pre-emergence action against ALOMY” value (ALOMY [1]) was 90%, the “Pre-emergence action against DIGSA” value (DIGSA [2]) was 100% and the “Pre-emergence action against LOLRI” value (LOLRI) was 90%. The “Pre-emergence action against POAAN” value (POAAN [3]) was 100%, the “Pre-emergence action against SETVI” value (SETVI) was 100% and the “Pre-emergence action against AMARE” value (AMARE) was 100%. The “Pre-emergence action against KCHSC” value (KCHSC) was 100%, the “Pre-emergence action against MATIN” value (MATIN [4]) was 100% and the “Pre-emergence action against STEME” value (STEME) was 100%. The “Pre-emergence action against VERPE” value (VERPE [5]) was 100% and the “Post-emergence action against VERPE” value (VERPE [6]) was 90%.
In the case of O=C(O)C1CCN(C(=O)COc2nn(-c3ccccc3F)c(-c3cncc(F)c3)c2Br)C1 (centres unmarked) [Example X-040], the “Pre-emergence action against DIGSA” value (DIGSA [2]) is reported as 90%, the “Pre-emergence action against ECHCG” value (ECHCG) is reported as 90% and the “Pre-emergence action against LOLRI” value (LOLRI) is reported as 90%. For the same compound, the “Pre-emergence action against POAAN” value (POAAN [3]) was 90%, the “Pre-emergence action against SETVI” value (SETVI) was 90% and the “Pre-emergence action against AMARE” value (AMARE) was 90%. The “Pre-emergence action against KCHSC” value (KCHSC) was 90%, the “Pre-emergence action against MATIN” value (MATIN [4]) was 90% and the “Pre-emergence action against STEME” value (STEME) was 90%. For the same compound, the “Pre-emergence action against VERPE” value (VERPE [5]) was 90%, the “Post-emergence action against ALOMY” value (ALOMY [7]) was 100% and the “Post-emergence action against DIGSA” value (DIGSA [8]) was 90%. For the same compound, the “Post-emergence action against POAAN” value (POAAN [9]) was 100%, the “Post-emergence action against ABUTH” value (ABUTH) was 90% and the “Post-emergence action against MATIN” value (MATIN [10]) was 100%. For the same compound, the “Post-emergence action against VERPE” value (VERPE [6]) was 100%.
In the case of O=C(COc1nn(-c2ccccc2F)c(-c2ccc(F)cn2)c1Br)NO [II-017], the “Pre-emergence action against DIGSA” value (DIGSA [2]) is reported as 100%, the “Pre-emergence action against POAAN” value (POAAN [3]) is reported as 100% and the “Pre-emergence action against SETVI” value (SETVI) is reported as 100%. For the same compound, the “Pre-emergence action against AMARE” value (AMARE) was 100%, the “Pre-emergence action against KCHSC” value (KCHSC) was 100% and the “Pre-emergence action against MATIN” value (MATIN [4]) was 90%. For the same compound, the “Pre-emergence action against STEME” value (STEME) was 90%, the “Post-emergence action against ALOMY” value (ALOMY [7]) was 100% and the “Post-emergence action against POAAN” value (POAAN [9]) was 100%. The “Post-emergence action against MATIN” value (MATIN [10]) was 90% and the “Post-emergence action against VERPE” value (VERPE [6]) was 90%.
